What was measured:
[1] = system: Colo320 cells; experiment: Apoptosis assay, Annexin-V-FITC/PI flow cytometry; settings: 3 h induction
Method: An apoptosis assay was performed by flow cytometry via the analysis of multidrug-resistant Colo320 cells stained with Annexin-V-FITC and propidium iodide (PI).
Colo320 cells were treated at the indicated concentration of the compounds. The dual parametric dot plots combining Annexin-V (FL1) and PI (FL3) fluorescence show the viable cell population in the lower left quadrant Annexin-V–/PI– (Q4), the early apoptotic cells in the lower right quadrant Annexin-V+/PI– (Q3), and the late apoptotic and necrotic cells in the upper right quadrant Annexin-V+/PI+ (Q2).
The assay was carried out for selected compounds using an Annexin V-FITC Apoptosis Detection Kit (cat. no. APOAF-50TST) from Sigma according to the manufacturer’s instructions. The concentration of the Colo320 cell suspension was adjusted to approximately 0.5 × 10^6 cells/mL in an RPMI 1640 medium, and the cell suspension was distributed in 1 mL of aliquots into a 24-well plate and then incubated overnight at 37 °C and 5% CO2. On the following day, the medium was removed and replaced by 1 mL of RPMI medium containing the compounds except the control samples. […] After the incubation period, the samples were washed with PBS and fresh RPMI 1640 medium was added to the samples. The cells were incubated overnight at 37 °C and 5% CO2. The next day, 200 μL of 0.25% Trypsin (Trypsin-Versen) was added to the samples until cells appeared detached followed by the addition of 400 μL of RPMI 1640 medium supplemented with 10% bovine serum. The cells were collected in Eppendorf tubes and centrifuged at 2000g for 2 min. The harvested cells were resuspended in fresh serum-free RPMI 1640 culture medium. After this step, the apoptosis assay was carried out according to the instructions of the manufacturer. The fluorescence was analyzed immediately using a ParTec CyFlow flow cytometer (Partec GmbH, Münster, Germany).
• Apoptosis and DNA binding studies […]

[2] = Aqueous stability in HEPES and PBS buffer by UV–vis; assay type: physicochemical; settings: pH 7.40, 10 mM HEPES or PBS, several hours
Method: Prior to the biological assays, the aqueous stability of selected compounds (HL^4, 4, HL^8, and 8) was measured as a function of time by UV–vis spectrophotometry at pH = 7.40 in 10 mM HEPES in PBS and in blood serum diluted by factor 3 (dilutions were made in HEPES and in PBS as well). […] This process took several hours, and it was in all cases less pronounced in the PBS buffer than in the HEPES medium.
(§1) Aqueous stability of 4, 8, and HL^4 was investigated in phosphate-buffered saline (PBS) and 10 mM HEPES buffers and in three-times diluted blood serum (Sigma Aldrich, from human male AB plasma) at pH = 7.40. The concentration of the compounds was between 5 and 10 μM. Blood serum was filtered on a 1.25 μm polyethersulfone membrane syringe filter and diluted with 10 mM HEPES or PBS buffer.

[3] = system: calf thymus DNA (ct-DNA); experiment: Ethidium bromide displacement and fluorescence lifetime; assay type: binding; settings: 10 μM ct-DNA, 5 μM EtBr, 10 mM HEPES, pH 7.40
Method: The interaction of 4 and 8 and HL^4 and HL^8 with ct-DNA was investigated by spectrofluorometry in ethidium bromide (EtBr) displacement studies. EtBr is a fluorescent probe, and its fluorescence intensity increases upon intercalation into the DNA helix. […] Decrease in the fluorescence may indicate (i) the displacement of EtBr or (ii) (partial) quenching of the fluorescence of the bound probe. In order to separate these processes, fluorescence lifetime measurements were carried out. […] In addition, they provided evidence that the two copper(II) complexes bind to ct-DNA. However, complex 8 replaced EtBr more effectively than 4. […]
Fluorescence measurements were carried out on a Fluoromax (Horiba Jobin Yvon) fluorometer. […] The excitation wavelengths were 510 or 455 nm, and the fluorescence emission was measured in the range 530–750 nm. Corrections for self-absorbance and inner filter effect were done according to our former work.[106] Fluorescence lifetime was measured on the same fluorometer equipped with a DeltaHub time-correlated single photon counting (TCSPC) controller using a NanoLED light source N-455 (Horiba Jobin Yvon). […] The fluorescence intensity decay over time is described by a sum of exponentials, [drawing 3] […] Fractional intensities were calculated as described in our former work.[105] […]

[4] = Stability in diluted blood serum by UV–vis; assay type: in vitro ADME, human; settings: pH 7.40, diluted with HEPES or PBS
Method: Measurements with diluted serum show a more elaborate picture. […] The new band cannot be undoubtedly attributed to the liberation of ligand HL^8.
as §1

Structure (SMILES)	Cell death % Q1 ([1]; 0.25 µM) [%]	Early apoptosis % Q3 ([1]; 0.25 µM) [%]	Late apoptosis and necrosis % Q2 ([1]; 0.25 µM) [%]	Cell death % Q1 ([1]; 0.5 µM) [%]	Early apoptosis % Q3 ([1]; 0.5 µM) [%]	Late apoptosis and necrosis % Q2 ([1]; 0.5 µM) [%]	Behaviour in buffer solutions over time [2]	Effect on fluorescence of the EtBr–ct-DNA system [3]	Behaviour in blood serum diluted by factor 3 [4]	Cell death % Q1 ([1]; 2 µM) [%]	Early apoptosis % Q3 ([1]; 2 µM) [%]	Late apoptosis and necrosis % Q2 ([1]; 2 µM) [%]
CC(=NNC1=NCc2ccccc2-c2c1[nH]c1ccc(Br)cc21)c1ccc(CN2CCOCC2)cn1.[Cl][Cu][Cl] [compound 4, CuCl2(HL^4)·0.5H2O]	5.10	7.48	12.7	4.76	5.18	11.6	slow precipitation	decreased the emission intensity	a similar behavior was observed, even though changes were smaller	–	–	–
CC(=NNc1nc2ccccc2c2c1[nH]c1ccc(Br)cc12)c1ccc(CN2CCOCC2)cn1.[Cl][Cu][Cl] [compound 8, CuCl2(HL^8)·H2O]	–	–	–	4.52	6.01	12.1	slow precipitation	decreased the emission intensity	partial decomposition of the complex	1.76	6.91	6.97

Reference: paper PMC8842277, “Highly Antiproliferative Latonduine and Indolo[2,3-c]quinoline Derivatives: Complex Formation with Copper(II) Markedly Changes the Kinase Inhibitory Profile” (Journal of Medicinal Chemistry, 2022)
